We go through 27 compounds from ChEMBL document CHEMBL1201862, “PubChem BioAssay data set” (2004).

What all share (assay): NCI anticancer screen, dose series, 48 h
For experiment [1], the system named is XF498.
The test system of experiment [2] is HOP-18.
Experiment [3] deals with LXFL 529.
Experiment [4] relates to M19-MEL.
Experiment [5] concerns DLD-1.
Experiment [6] concerns RXF 631.
For experiment [7], the system named is MDA-N.
Experiment [8] deals with BT-549.
Experiment [9] deals with Hs-578T.

Structures are written as SMILES.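 Grown in 96-well plates, cells were treated for 48 hours with each compound at five concentrations. Insufficient inhibition: endpoint recorded as highest concentration tested. Here, GI50 denotes the concentration required for 50% inhibition of growth.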 The source made the active and inactive calls. Rule as the data show it: active = GI50 up to about 1.1 µM and inactive = higher.

Take `CN(C)CCNC(=O)c1ccc(Cl)c2c(Nc3ccc(S(N)(=O)=O)cc3)c3ccccc3nc12`: the GI50 in experiment [1] was 0.165 µM (active); in experiment [2], 2.2 µM (inactive); in experiment [3], 0.564 µM (active); in [4], 1.63 µM (inactive); in [5] it was 1.31 µM (inactive); in experiment [6], 0.566 µM (active).
Take `C=CCC(O)c1cc(OC)ccc1OC` (centres undefined): the GI50 in experiment [1], in experiment [3], in experiment [4] and in experiment [6] was > 100 µM (inactive) each time.
Turning to `COc1ccc(C2=NN(c3ccccc3)C[N+](c3ccc(C)cc3)=N2)cc1`, the GI50 in experiment [1] was 25.3 µM (inactive); in experiment [3] it was 16.3 µM (inactive); in [4], 29.9 µM (inactive); in experiment [5], 40.6 µM (inactive).
Take `Nn1c(S)nnc1N/N=C1/C(=O)Nc2ccccc21`: the GI50 is 37.9 µM (inactive) in [1]; 70.5 µM (inactive) in [2]; 39.5 µM (inactive) in [3]; > 100 µM (inactive) in experiment [4]; 48.9 µM (inactive) in experiment [5].
For `COC1C(OC(=O)c2ccc(C)[nH]2)C(O)C(Oc2ccc3c(O)c(NC(=O)c4c[nH]c(C(=O)Nc5c(O)c6ccc(OC7OC(C)(C)C(OC)C(OC(=O)c8ccc(C)[nH]8)C7O)c(C)c6oc5=O)c4C)c(=O)oc3c2C)OC1(C)C` (centres undefined), in that order: 2.18 µM (inactive), 0.596 µM (active), 1.07 µM (active), 1.64 µM (inactive) and 1.86 µM (inactive).
On to `O=C(CCN1CCN(c2ccccc2)CC1)N1CCc2c([nH]c3ccccc23)C1c1cccnc1` (centres undefined), for which the GI50 in [2] is 18.5 µM (inactive); in [3] it was 16.3 µM (inactive); in [4] it was 19.9 µM (inactive); in experiment [5], 18.4 µM (inactive).
In the case of `CCc1ccc(Nc2ccc([N+](=O)[O-])cc2[N+](=O)[O-])cc1`, the GI50 in experiment [1] was > 100 µM (inactive); in experiment [3] it was 50.9 µM (inactive); in experiment [4], > 100 µM (inactive); in [5] it was > 100 µM (inactive).
Take `CC12CCC([C@H](N3CCOCC3)/C1=N\OCCN1CCCC1)C2(C)C` (some centres undefined): the GI50 in experiment [2], in experiment [3], in experiment [4], in [5] and in [6] was > 100 µM (inactive) each time.
Regarding `CC(=O)O[C@H]1CCC2[C@@H]3CCC4c5nonc5CC[C@]4(C)C3CC[C@@]21C` (some centres undefined), the GI50 in [2], in experiment [3], in experiment [4] and in [5] was > 10 µM (inactive) throughout.
Take `COc1cc(C(=O)C/C(CCC(=O)Nc2ccc(Cl)cc2Cl)=N/Nc2nnc(C)n2N)ccc1O`: the GI50 in experiment [1], in experiment [2], in [3], in experiment [4] and in experiment [5] was > 100 µM (inactive) throughout.
Consider `C=CC/N=C1\NC(=O)C(CC(=O)Nc2ccc(C)cc2)S1` (centres undefined), for which the GI50 in experiment [1], in experiment [2], in [3], in experiment [4], in experiment [5] and in experiment [6] was > 100 µM (inactive) each time.
Consider `CCOC(=O)C(C(=O)OCC)S(C)(=O)=O`, for which the GI50 in experiment [1], in experiment [2], in experiment [4], in experiment [5] and in experiment [6] was > 100 µM (inactive) throughout.
Turning to `CN(C)P(=O)(/C(N)=N/Nc1ccc([N+](=O)[O-])cc1)N(C)C`, the GI50 in [1], in [3], in experiment [4] and in experiment [5] was > 100 µM (inactive) each time.
As for `CCOC(=O)/C(=C/c1cccc(C#N)c1)N(CC)CC`, the GI50 in experiment [1], in experiment [2], in [3], in experiment [4], in experiment [5] and in [6] was > 100 µM (inactive) each time.
Regarding `NC(=O)N/N=C(/c1nc2ccc([N+](=O)[O-])cc2nc1O)C(O)c1ccco1` (centres undefined), the GI50 was > 100 µM (inactive) in experiment [1]; 36.8 µM (inactive) in experiment [3]; 79.8 µM (inactive) in experiment [4]; > 100 µM (inactive) in [5]; 48.2 µM (inactive) in [6].
For the compound `CC1=Nc2ccccc2S(=O)(=O)N1`, the GI50 in [2], in [3], in [4] and in experiment [5] was > 100 µM (inactive) throughout.
Take `N#CC(C(=O)/C(=N/N)C(C#N)c1ccccc1)c1ccccc1` (centres undefined): the GI50 in experiment [1], in experiment [2], in [3], in experiment [4], in experiment [5] and in [6] was > 100 µM (inactive) throughout.
Take `O=C(c1ccc(Cl)cc1)N(C(=S)N1CCN(c2ccccn2)CC1)c1ccccc1`: the GI50 is > 100 µM (inactive) in [2], 55.2 µM (inactive) in experiment [3], > 100 µM (inactive) in [4] and > 100 µM (inactive) in [5].
As for `Cc1c(C(=N)N)oc2ccccc12`, the GI50 in [1] was 21.4 µM (inactive); in [2], > 100 µM (inactive); in experiment [3], > 100 µM (inactive); in [4], > 100 µM (inactive); in experiment [5], > 100 µM (inactive).
Turning to `CCOc1ccc(/C=C2/C(=O)N=C(N)N=C2N)cc1OCC`, the GI50 in experiment [1], in experiment [2], in experiment [3], in experiment [4] and in experiment [6] was > 100 µM (inactive) throughout.
Turning to `CNC(SC)=C1C(=O)OC(C)(C)OC1=O`, the GI50 in experiment [1] was > 100 µM (inactive); in experiment [2], > 100 µM (inactive); in [3], > 100 µM (inactive); in experiment [4] it was > 100 µM (inactive); in experiment [5], 22.2 µM (inactive).
For the compound `COC(=O)c1cc2cc(OC)c(OC)cc2cc(C(=O)OC)c1=O`, the GI50 in experiment [1], in experiment [2], in experiment [3], in experiment [4], in experiment [5] and in experiment [6] was > 100 µM (inactive) throughout.
Consider `c1ccc(CN2CCCCC(Sc3ccccc3)CC2)cc1` (centres undefined), for which the GI50 was 42.7 µM (inactive) in [2], 17.7 µM (inactive) in experiment [3], 3.1 µM (inactive) in [4] and 20.8 µM (inactive) in experiment [5].
For the compound `N=C1NC2(O)C(=O)c3ccccc3C2(O)N1` (centres undefined), the GI50 in experiment [2], in experiment [3], in experiment [5] and in experiment [6] was > 100 µM (inactive) throughout.
In the case of `c1cncc(C2c3[nH]c4ccccc4c3CCN2CCN2CCCCC2)c1` (centres undefined), the GI50 in experiment [1], in experiment [2], in experiment [3], in [4], in experiment [5] and in experiment [6] was > 100 µM (inactive) throughout.
For `CC(O)c1ccc[n+](Cc2ccccc2)c1` (centres undefined), the GI50 in [1], in [2], in [3], in [4], in [5] and in [6] was > 400 µM (inactive) each time.
Consider `CC12C=CC(=O)C=C1CCC1C3CCC(O)(C(=O)CO)C3(C)CC(O)C12F` (centres undefined), for which the GI50 was > 100 µM (inactive) in experiment [7]; > 100 µM (inactive) in experiment [1]; > 100 µM (inactive) in [3]; > 100 µM (inactive) in experiment [4]; > 100 µM (inactive) in [5]; 95.3 µM (inactive) in experiment [8]. In addition, in experiment [9], the GI50 is > 100 µM (inactive).
